Data reported in US6989435B2, “Compounds and methods to inhibit or augment an inflammatory response” (Cambridge University Technical Services Ltd., priority 1997, dated 2006).
Marks after values point to notes of the source that are not given here. Positions of bridges follow the written chain, without caps; N, C: chain ends. Non-standard residues stand in square brackets, D forms with d. Residues, ends and D or L forms follow the SMILES beside them. ξ: configuration not given here. ξI = CCC(C)C(N)C(=O)O

What was measured:
[1] = tested on: chemokine receptors on THP-1 cells; assay: Binding to THP-1 cells; set-up: species or system human; details: Table 7
Method: In general, specific binding is calculated as the amount of labeled agent bound in the absence of cold competitor minus the amount of labeled agent bound in the presence of cold competitor. The amount of specific binding in the presence of varied amounts of cold competitor can be used to determine the association constant for the agent, as well as the number of binding sites on the cell for the agent, using, for example, Scatchard Analysis. The agent may be labeled by radiolabeling (e.g., iodination) or with a suitable biochemical tag (e.g., biotin) or by addition of a photoactivatable crosslinking group. […]
For example, monocytes are suspended in RPMI 1640 medium without bicarbonate containing 0.2% bovine serum albumin and 0.1% azide. […] Filters are washed with 4 ml of cold wash buffer, and the radioactivity bound to the filters is counted in a γ-counter.
For competition studies, the IC50 is calculated with a curve fitting program (GraFit, Erithacus Software, London), using a four-parameter logistic, cpmbound=cpmmax/(1+([L]/IC50)^S)+cpmns, where cpmmax represents the binding without competitor, [L] is the competitor concentration, cpmns is the non-specific binding, and s is the slope factor. […]

[2] = Plasma concentration after a single intraperitoneal dose; type: in vivo; details: ip, 24 hours after a single intraperitoneal dose of 1 mg in 250 μl saline
Method: (§1) For example, to prepare a peptide 3 derivative, peptide 3(3-12)[MCP-1] was modified according to Jameson et al. (Nature, 368, 744 (1994)), which yielded CRD-Cys13leu4ile11peptide 3[MCP-1] (FIG. 4). CRD-Cys13eu4ile11peptide 3[MCP-1], which had very similar properties to peptide 3(1-12)[MCP-1] […] CRD-Cys13leu4ile11peptide 3[MCP-1] was also resistant to hydrolysis in vivo and allowed therapeutically useful plasma concentrations to be achieved (>10 μM 24 hours after a single intraperitoneal dose of 1 mg of CRD-Cys13leu4ile11peptide 3[MCP-1] in 250 μl saline).

[3] = tested on: trypsin; assay: Stability against enzymatic destruction; type: in vitro ADME; details: 5 units trypsin for 2 hrs at 37° C.
Method: as §1

[4] = Stability against acid hydrolysis; type: physicochemical; details: pH 2.0 for 2 hrs at 37° C.
Method: as §1

level at time molar at 24 h [2] [µM] | stability against enzymatic destruction [3] | degradation by acid hydrolysis [4] [%] | Compound | AVERAGE ED50 (peptide 2 family: estimated ka for binding to THP-1 cells) [1]
– | – | – | HLKILNTPNCALQIV [Pep2[SDF1]] | 1-10^c μM
– | – | – | ELRVIESGPHCANTEI [Pep2[IL8]] | 1-10^c μM
> 10 | stable | < 10 | CCC(C)C1NC(=O)[C@@H](CCC(N)=O)NC(=O)[C@H](N)CSSC[C@H](C(=O)O)NC(=O)[C@@H](CC(C)C)NC(=O)[C@@H](CC(=O)O)NC(=O)[C@H]2CCCN2C(=O)[C@@H](CCCCN)NC(=O)[C@@H](CCC(N)=O)NC(=O)[C@@H](CCCCN)NC(=O)[C@@H](Cc2c[nH]c3ccccc23)NC1=O (stereo partly drawn) [CRD-Cys13Leu4ile11peptide 3] (H-[dC][dQ][ξI][dW][dK][dQ][dK][dP][dD][dL][dC]-OH; disulfide 1-11; N-terminus and C-terminus assumed) | –
